Data on 89 molecules can be found in PubChem BioAssay AID743417 (Broad Institute, 2014).

Molecules are shown by their SMILES. Inconclusive results are not listed. Calls of active or inactive are those of the source.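 Rule for the calls: active = compounds lowering the luciferase signal with a fitted half-maximal dose at most twice their top valid dose (cut at about 30 µM in these data); inconclusive = flat fits with moderate signal loss, or poor fits; inactive = the rest.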

For the assay, the system named is Clone20 osteoblast Shn3 3'UTR firefly luciferase, 24 h. Put plainly: Schnurri-3 3'UTR-luciferase signal suppressors – cell-based, Clone20 osteoblasts, luminescence, dry powder, set 2, dose response (AID 743417).
As for `CN(CC(=O)Nc1ccccc1Cl)C(=O)c1cccc(S(=O)(=O)N2CCN(c3ccc(F)cc3)CC2)c1`, the half-maximal activity concentration (AC50) is 3.62 µM. As for `Cn1c(=O)c2c(nc(NCc3ccco3)n2CCc2ccccc2)n(C)c1=O`, the AC50 was 2.34 µM. On to `CC(C)(C)c1ccc(NC(=O)COc2ccc(-n3ccnc3)cc2)cc1`, for which the concentration at half-maximal activity (AC50) is 5.27 µM. In the case of `O=C(OCn1ncc(Cl)c(Cl)c1=O)c1cccc(C(F)(F)F)c1`, the AC50 is 3.74 µM. For the molecule `Cc1ccc(CS(=O)(=O)c2ncc(Cl)c(C(=O)Nc3nnc(C)s3)n2)cc1`, the AC50 was 0.639 µM. As for `OC(CNCCC1C=Nc2ccccc21)Cn1c2ccc(Cl)cc2c2cc(Cl)ccc21` (centres undefined), the AC50 is 5.11 µM. Consider `CC(NNC(=S)N1CCN(c2ccccn2)CC1)c1nccc2ccccc12` (centres undefined), for which the AC50 is less than 0.26 µM. In the case of `Nc1nonc1C(=O)NCCNCc1cc(Br)ccc1OCc1ccc(F)cc1`, the AC50 was 3.74 µM. `Cc1ccccc1OCCOC(=O)c1cc(S(=O)(=O)N2CCCCC2)ccc1N1CCOCC1`: the AC50 is 3.79 µM.

On to `CCC(=O)c1ccc(OCc2ccc(C(=O)c3ccccc3)cc2)cc1`, for which the AC50 was 3.29 µM. Turning to `Cc1ccc(C(=O)N2c3ccccc3N(Cc3ccccc3)C(=O)C2(C)C)cc1`, the AC50 is 6.92 µM. In the case of `CCCCC(=O)NC(c1ccc(Cl)cc1Cl)c1ccc2cccnc2c1O` (centres undefined) it was 0.67 µM; in that of `CCN(CC)S(=O)(=O)c1cccc(NC(=O)CNc2cccc(S(=O)(=O)N3CCCC3)c2)c1`, 0.317 µM; in that of `O=C(Nc1ccncc1)c1ccc(Cl)c(S(=O)(=O)N2CCc3ccccc32)c1`, 3.19 µM. Regarding `CCCCCOc1ccc(Br)cc1CSC(=N)N`, the AC50 was 1.47 µM. As to `O=C(N[C@@H]1C/C=C\C[C@H](CC(=O)N(CCO)Cc2ccccc2)C(=O)NC[C@@H](c2ccccc2)OC1=O)OCC1c2ccccc2-c2ccccc21`, the AC50 is 4.5 µM. Turning to `CN1/C(=C\C(=O)CN2C(=O)NC3(CCCCCC3)C2=O)C(C)(C)c2ccccc21`, the AC50 was 2.66 µM.

As for `COc1cc(CC(=O)Nc2nc(-c3ccc(F)c(F)c3)cs2)cc(OC)c1OC`, the AC50 was 3.92 µM. In the case of `O=C(CSc1nnc(Cn2nnc3ccccc32)o1)N(Cc1ccc(Cl)cc1)c1ccccc1`, the half-maximal activity concentration (AC50) was 2.29 µM. On to `O=C1/C(=C/c2ccccc2)C[C@@]2(O)[C@H]3Cc4ccc(O)c5c4[C@@]2(CCN3CC2CC2)C1O5` (some centres undefined), for which the AC50 is 4.64 µM. Take `Cc1ccc(C(=O)/C=C/c2ccc(-c3ccc(C)cc3)o2)cc1`: the AC50 is 2.79 µM. With `O=C(c1ccc(S(=O)(=O)c2ccccc2Cl)c([N+](=O)[O-])c1)N1CCN(Cc2ccccc2)CC1`, the AC50 was 5.77 µM. Then `Nc1nc(N)c2cc(Sc3cccc(C(F)(F)F)c3)ccc2n1`, with 4.87 µM; and `Cc1ccccc1C(=O)NC(=S)Nc1ccc(N2CCN(C(=O)c3ccccc3)CC2)cc1`, with 1.88 µM; and `CCC(NC(=O)Nc1nnc(C(F)(F)F)s1)(C(F)(F)F)C(F)(F)F`, with 4.15 µM. In the case of `CC1CCN(c2ccc(-c3cccc(NC(=O)C(F)(F)F)c3)nn2)CC1`, the AC50 is 2.74 µM. As to `Cc1nc2scc(C)n2c(=O)c1S(=O)(=O)Nc1ccc(N2CCOCC2)c(Cl)c1`, the AC50 was 1.67 µM. In the case of `Cc1cc(C(=O)COc2cccnc2[N+](=O)[O-])c(C)n1-c1ccccc1` it was 34.8 µM; in that of `Cc1cccc(CS(=O)(=O)c2ncc(Cl)c(C(=O)NCc3ccc4c(c3)OCO4)n2)c1`, 0.938 µM; in that of `Cc1ccc(S(=O)(=O)N2C[C@@H]3CCCC[C@@H]3[C@@H](C)[C@H]2c2cn(Cc3ccccc3)c3ncccc23)cc1`, 1.92 µM. Then `O=C(Nc1nc(-c2ccccc2)cs1)c1ccc(N2CCOCC2)c([N+](=O)[O-])c1`, with 3.75 µM; and `CCCCN(C(C)=O)c1ccc2c(c1)C1CC2CCN1C(=O)OCc1ccccc1` (centres undefined), with 1.37 µM. Take `C=C1C(=O)OC2C=C(CO)C3OC3C3OC3(C)CC(OC(=O)/C(=C/C)COC(C)=O)C12` (centres undefined): the AC50 is 5.89 µM.

As for `CCN(CC)CCNc1cc(C)nc2c1C(=O)C(=O)C=C2N1CCCCC1`, the AC50 is 6.61 µM.

Take `Cc1sc2ncnc(NCC(C)(C)N3CCOCC3)c2c1C`: the AC50 was 1.36 µM. `CC1Cc2cc(S(=O)(=O)N3CCC(C(=O)N4CCN(c5ccccc5F)CC4)CC3)ccc2N1C(=O)C1CC1` (centres undefined): the AC50 is 1.65 µM. As to `C[C@@H]1CCCCO[C@H](CN(C)Cc2ccccc2)[C@@H](C)CN([C@H](C)CO)C(=O)c2cc(NC(=O)c3ccccc3)ccc2O1`, the AC50 is 31.3 µM. Then `CC(=O)NC(c1ccc(C)cc1)c1cc(Cl)c2cccnc2c1O` (centres undefined), with 2.12 µM; and `CCCc1nnc(NC(=O)c2nc(S(=O)(=O)Cc3ccc(C)cc3)ncc2Cl)s1`, with 0.538 µM. With `COc1cccc(CN(C)C(=O)c2cc(COc3ccc4ncccc4c3)on2)c1`, the AC50 was 1.49 µM. With `CCc1ccc(Nc2n[n+](-c3ccccc3)c(-c3c(Cl)cccc3Cl)s2)cc1`, the AC50 is 5.4 µM.

For `Cc1cc(=O)oc2c3c(cc(OCC(=O)Nc4ccc(CCO)cc4)c12)OC(C)(C)CC3`, the AC50 was > 70 µM (inactive). As to `C=C1C(=O)OC2CC3(C)OC3C3OC3C3=CC(OC3=O)C12` (centres undefined), the half-maximal activity concentration (AC50) is 1.45 µM. Turning to `CS(=O)(=O)c1nc(-c2ccccc2)cc(C(F)(F)F)n1`, the AC50 is 1.53 µM. For the molecule `Cc1cc(S(=O)(=O)c2ccc([N+](=O)[O-])cn2)ccc1Br`, the AC50 was 3.69 µM.

`CCOC(=O)c1cn(CC(=O)Nc2cccc(Cl)c2C)nn1`: the AC50 is 4.65 µM. Take `CCCC(=O)NC(=S)Nc1ccc(N2CCN(C(=O)c3cccs3)CC2)cc1`: the AC50 is 10.1 µM. Take `Cc1cc(S(=O)(=O)c2ccc(Cl)cc2)nc(S(=O)(=O)c2ccc(Cl)cc2)c1C#N`: the AC50 was 2.83 µM.

On to `CCOC(=O)c1c2c(n(-c3ccc(OC)cc3)c1C)C(=O)C(=O)c1ccccc1-2`, for which the AC50 was 3.15 µM. Take `COc1cccc(C(NC(C)=O)c2ccc3cccnc3c2O)c1` (centres undefined): the AC50 is 1.39 µM. Consider `Cc1ccc(-c2nc3ncccc3o2)cc1NC(=O)c1sc2ccccc2c1Cl`, for which the AC50 was 5.87 µM. In the case of `CC1Cc2cc(S(=O)(=O)N3CCN(c4ccc(Cl)cc4)CC3)ccc2N1C(=O)C1CC1` (centres undefined), the concentration at half-maximal activity (AC50) is 4.26 µM. As to `CNc1ccccc1C(C)(C)c1cc(-c2cccc(Br)c2)no1`, the AC50 was 2 µM. On to `CN(Cc1cccc(Cl)c1Cl)C(=O)c1cccc(S(=O)(=O)N2CCN(Cc3ccccc3)CC2)c1`, for which the AC50 is 3.38 µM. On to `COc1cccc(CN(C)C(=O)c2cccc(S(=O)(=O)N3CCN(Cc4ccccc4)CC3)c2)c1OC`, for which the half-maximal activity concentration (AC50) was 4.94 µM. Consider `O=C(OCCOc1ccc(Cl)cc1)c1cc(S(=O)(=O)N2CCCCC2)ccc1N1CCOCC1`, for which the AC50 is 1.97 µM. Regarding `CCC1CSC(Nc2ccc(C(=O)/C=C/c3ccc(OC)c(OC)c3)cc2)=N1` (centres undefined), the AC50 was 4.47 µM. In the case of `O=C(NCCc1ccccc1)c1ccc2c(c1)OCCO2`, the AC50 was 2.16 µM. Turning to `O=C(NCc1ccc2c(c1)OCO2)c1nc(S(=O)(=O)Cc2ccccc2)ncc1Cl`, the half-maximal activity concentration (AC50) is 6.4 µM. Then `COc1ccc(C(NC(=O)c2cccnc2)c2cc(Cl)c3cccnc3c2O)cc1OC` (centres undefined), with 1.88 µM. Turning to `CCN(CCCl)c1cc(CN(C)C)cc(NC(=O)c2ccc(C(=O)Nc3cc(CN(C)C)cc(N(CC)CCCl)c3)cc2)c1`, the AC50 was 2.65 µM. With `CCOC(=O)c1cnc(-n2nc(C)cc2C)nc1NC1CCCC1`, the half-maximal activity concentration (AC50) was 4.4 µM.

Consider `Cc1cc(/C=C2/SC(=S)N(c3cccc(Cl)c3)C2=O)c(C)n1-c1cccnc1`, for which the AC50 was 0.979 µM. In the case of `O=C(O)c1cccc(COc2ccccc2Cl)c1`, the AC50 is 1.48 µM.

Regarding `c1ccc(CNc2ncnc3ccccc23)cc1`, the AC50 was 1.5 µM. With `Cn1c(/C=C/c2ccc(Cl)cc2Cl)c([N+](=O)[O-])c(=O)n(C)c1=O`, the AC50 is 6.87 µM.

On to `COCC1CCCCN1C(=O)c1cc(COc2ccc3ncccc3c2)on1` (centres undefined), for which the AC50 was 0.33 µM. Then `Cc1ccc(CNC(=O)c2cc(-c3ccccc3C)nn2CC2CC(c3cccnc3)=NO2)cc1` (centres undefined), with > 70 µM (inactive); and `COc1ccc(N2CCN(C(=O)CN3CCN(c4nc(-c5ccc(F)cc5)cs4)CC3)CC2)cc1`, with 1.81 µM; and `COc1ccc(Oc2cc(NC(=O)c3nn(C)cc3[N+](=O)[O-])cc([N+](=O)[O-])c2)cc1`, with 0.813 µM.

With `Oc1cccc(C(Nc2nccs2)c2ccc3cccnc3c2O)c1` (centres undefined), the AC50 is 1.67 µM. In the case of `COc1ccc(CC(N)c2csc(NC(=O)Nc3cccc(C(F)(F)F)c3)n2)cc1` (centres undefined) it was 8.4 µM; in that of `CC(C)CCC(C(=O)O)C(C)CC(=O)NNC(=O)c1ccco1` (centres undefined), > 70 µM (inactive); in that of `CCN(CC)S(=O)(=O)c1ccc(S(=O)(=O)N2CCCC(C(=O)NC3CC3)C2)cc1` (centres undefined), 2.9 µM. Then `CN(C)CCNC(=O)c1cccc2nc3cccc(F)c3nc12`, with 13.7 µM.

`O=C(Nc1ccc(N2CCOCC2)cc1)c1ccc(Cl)c(S(=O)(=O)N2CCCC2)c1`: the AC50 is 2.17 µM.

Turning to `CCc1nnc(NC(=O)c2nc(S(=O)(=O)Cc3cccc(C)c3)ncc2Cl)s1`, the AC50 was 2.51 µM. With `Cc1ccc(-c2cn3cc(C)ccc3n2)cc1`, the AC50 was 1.32 µM. Consider `CC(=O)c1ccc(NC(=O)C(C)OC(=O)/C=C/c2ccco2)cc1` (centres undefined), for which the half-maximal activity concentration (AC50) is 9.12 µM. With `CCC1CCCCN1S(=O)(=O)c1ccc(NC(=O)c2nc(S(C)(=O)=O)ncc2Cl)cc1` (centres undefined), the AC50 is 0.341 µM. For the molecule `CC1C(=O)N(Cc2cn(CCC3OCCCO3)nn2)CCS(=O)(=O)N1Cc1ccc(-c2ccc(Cl)c(Cl)c2)cc1` (centres undefined), the AC50 was 3.39 µM. As to `C=CCC[C@H](Cc1ccc(F)cc1)C(=O)OC[C@@H](Cc1c[nH]c2ccccc12)NC(=O)[C@H](CC=C)CC(=O)N(CCO)Cc1ccccc1`, the concentration at half-maximal activity (AC50) was 8.66 µM. `O=C(OCC12CC3CC(CC(C3)C1)C2)c1ccc(NCc2cc(O)ccc2O)cc1`: the AC50 is 3.25 µM. Consider `CCn1cc(C(=O)NCc2ccco2)c(=O)c2cc(S(=O)(=O)N3CC(C)CC(C)C3)ccc21` (centres undefined), for which the AC50 is 0.778 µM. In the case of `CCOC(=O)c1sc(NC(=O)CCCn2nc([N+](=O)[O-])c(Cl)c2C)c(C(=O)OCC)c1C` it was 6.34 µM; in that of `COc1ccc(C2/C=C\CN(C(=O)c3ccc(C)cc3)[C@H](Cc3ccccc3)C(=O)N2Cc2ccc(F)cc2)cc1` (some centres undefined), 0.772 µM; in that of `COc1ccc(-n2nc3c(N4CCC(C(=O)NCC(C)c5ccccc5)CC4)nnc(C)c3c2C)cc1` (centres undefined), 3.25 µM. Consider `CCc1ccc(CN(C)C(=O)c2cc(COc3cccc4cnccc34)on2)cc1`, for which the AC50 was 1.92 µM. In the case of `CC1CCC/C=C/C(=O)c2c(O)cc(O)cc2CC(=O)O1` (centres undefined), the AC50 is 4.12 µM.

Broadly, the AC50 is the concentration at which the activity in the assay is half-maximal.
